# From patent US20130040898A1, “METHODS OF TREATMENT OF PATIENTS AT INCREASED RISK OF DEVELOPMENT OF ISCHEMIC EVENTS AND COMPOUNDS HEREOF” (priority 2010, published 2013)
# Key:
# [1] = depends on administration form and/or dosage; cited from earlier work
# [2] = test system: platelet aggregation in whole blood; assay: Platelet aggregation in whole blood evaluated by Multiplate; format: cell-based
# Description: FIG. 2: MultiPlate continuously records platelet aggregation. The increase of impedance by the attachment of platelets onto the Multiplate sensors is transformed to arbitrary aggregation units (AU) and plotted against time. […] Hereby, the effect on the endothelium of PGI2 can be employed in conjunction with treatment with antithrombotic agents such as Aspirin (ASA), platelet ADP—and a platelet inhibitor, such as GPIIb/IIIa receptor antagonists without increased risk of bleeding in this high-risk population. The term “Mulitplate” refers to an applied platelet aggregometer/platelet function analyzer utilizing the analysis of whole blood. Whole blood is the physiological environment where platelet function takes place in vivo, and the use of whole blood for in-vitro testing eliminates the need for time-consuming centrifugation steps required for Born aggregation measurements. The use of a small amount of whole blood (0.3 ml per test) allows the differentiated assessment of platelet function without drawing large amounts of blood (as required for analysis of Born aggregation) and facilitates the analysis of blood from children and also in experimental settings.
# [3] = test system: thrombus formation; assay: Thrombus formation evaluated by viscoelastical haemostatic assay, thrombelastography (TEG); format: cell-based
# Description: FIG. 1: Recording haemostatic activity using TEG assay. […] Hereby, the effect on the endothelium of PGI2 can be employed in conjunction with treatment with antithrombotic agents such as Aspirin (ASA), platelet ADP—and a platelet inhibitor, such as GPIIb/IIIa receptor antagonists without increased risk of bleeding in this high-risk population.
Compound,half time [1] [min],effect on platelet aggregation in whole blood as evaluated by MULTIPLATE [2],effect on thrombus formation as evaluated by viscoelastical haemostatic assays such as thrombelastography (TEG) [3]
CC#CCC(C)[C@H](O)/C=C/[C@@H]1[C@H]2c3cccc(CCCC(=O)O)c3O[C@H]2C[C@H]1O (mixture of isomers) [Beraprost],35 to 40,–,–
CC#CCC(C)[C@H](O)/C=C/[C@@H]1[C@H]2C/C(=C/CCCC(=O)O)C[C@H]2C[C@H]1O (some centres unmarked) [Iloprost],20 to 30,–,–
CSCCNc1nc(SCCC(F)(F)F)nc2c1ncn2[C@@H]1O[C@H](COP(=O)(O)OP(=O)(O)C(Cl)(Cl)P(=O)(O)O)[C@@H](O)[C@H]1O [cangrelor],3 to 5,–,–
CCCCC[C@H](O)/C=C/[C@@H]1[C@H]2C/C(=C/CCCC(=O)O)O[C@H]2C[C@H]1O [prostacyclin],–,does not affect platelet aggregation,does not impair thrombus formation
